Experimental data reported in ChEMBL document CHEMBL6120976, “Derivatization of Microcystins Can Increase Target Inhibition while Reducing Cellular Uptake” (J Nat Prod, 2025).
Numbered stars: 1 amine (or outer) side, 2 acyl side, 3 side chain; on linkers, the order of the positions; unused ones are H or OH. Bridge positions count the residues as written; N and C are the ends. Square brackets hold non-standard residues; d marks the D form. Peptide text beside a SMILES is read from it. Adda = CO[C@@H](Cc1ccccc1)[C@@H](C)/C=C(C)/C=C/[C@H](N[*:1])[C@H](C)C(=O)[*:2]; dAsp(3S-Me) = C[C@H](C(=O)[*:3])[C@@H](N[*:1])C(=O)[*:2]; d(γGlu) = O=C(O)[C@@H](CCC(=O)[*:2])N[*:1]; NMeDha = C=C(NC)C(=O)O

Tests used:
[1] = tested on: OATP1B1; assay: Cytotoxicity against sodium butyrate-treated HEK293 cells transfected with OATP1B1 incubated for 48 hrs by absorbance based assay; type: toxicity, cell-based; conditions: human
[2] = Selectivity index, ratio of EC50 for cytotoxicity against sodium butyrate-treated HEK293 cells transfected with OATP1B1 to IC50 for inhibition of PP1 (unknown origin); type: cell-based
[3] = tested on: OATP1B3; assay: Cytotoxicity against sodium butyrate-treated HEK293 cells transfected with OATP1B3 incubated for 48 hrs by absorbance based assay; type: toxicity, cell-based; conditions: human
[4] = Selectivity index, ratio of EC50 for cytotoxicity against sodium butyrate-treated HEK293 cells transfected with OATP1B3 to IC50 for inhibition of PP1 (unknown origin); type: cell-based
[5] = Selectivity index, ratio of EC50 for cytotoxicity against sodium butyrate-treated HEK293 cells transfected with OATP1B1 to EC50 for cytotoxicity against sodium butyrate-treated HEK293 cells transfected with OATP1B3; type: cell-based
[6] = Inhibition of PP1 (unknown origin) incubated for 2 hrs by absorbance based assay; design: species or system Homo sapiens

C=C1C(=O)N[C@H](C)C(=O)N[C@@H](CC(C)C)C(=O)N[C@@H](C(=O)O)[C@H](C)C(=O)N[C@@H](CCCNC(=N)N)C(=O)N[C@@H](/C=C/C(C)=C/[C@H](C)[C@H](Cc2ccccc2)OC)[C@H](C)C(=O)N[C@@H](C(=O)O)CCC(=O)N1C [MICROCYSTIN-LR] (R[Adda][d(γGlu)][NMeDha][dA]L[dAsp(3S-Me)]-OH; lactam N-7)
EC50 at 48 h [1]: 8.8 nM
Ratio [2]: 1.6
EC50 at 48 h [3]: 9.3 nM
Ratio [4]: 1.7
Ratio EC50 [5]: 1
IC50 [6]: 5.5 nM
